Assays:
[1] = molecular target: T1, Equilibrative nucleoside transporter 1 (Homo sapiens, UniProt Q99808)
T1 sequence (Q99808 whole entry): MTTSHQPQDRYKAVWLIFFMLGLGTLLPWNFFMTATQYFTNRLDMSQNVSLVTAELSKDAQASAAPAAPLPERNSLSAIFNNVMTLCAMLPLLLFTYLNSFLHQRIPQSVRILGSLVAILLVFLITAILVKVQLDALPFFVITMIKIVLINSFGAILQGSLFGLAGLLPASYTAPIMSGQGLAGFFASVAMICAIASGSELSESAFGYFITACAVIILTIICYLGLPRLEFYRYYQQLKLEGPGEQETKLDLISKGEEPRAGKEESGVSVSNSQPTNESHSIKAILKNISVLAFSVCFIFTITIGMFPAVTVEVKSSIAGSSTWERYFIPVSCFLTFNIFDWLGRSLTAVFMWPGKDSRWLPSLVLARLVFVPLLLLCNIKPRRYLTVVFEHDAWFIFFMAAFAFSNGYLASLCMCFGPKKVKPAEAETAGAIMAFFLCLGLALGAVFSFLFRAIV

Cannabinoid receptor 1 = Cannabinoid receptor 1 (Homo sapiens, UniProt P21554)
Sequence of Cannabinoid receptor 1 (P21554 whole entry): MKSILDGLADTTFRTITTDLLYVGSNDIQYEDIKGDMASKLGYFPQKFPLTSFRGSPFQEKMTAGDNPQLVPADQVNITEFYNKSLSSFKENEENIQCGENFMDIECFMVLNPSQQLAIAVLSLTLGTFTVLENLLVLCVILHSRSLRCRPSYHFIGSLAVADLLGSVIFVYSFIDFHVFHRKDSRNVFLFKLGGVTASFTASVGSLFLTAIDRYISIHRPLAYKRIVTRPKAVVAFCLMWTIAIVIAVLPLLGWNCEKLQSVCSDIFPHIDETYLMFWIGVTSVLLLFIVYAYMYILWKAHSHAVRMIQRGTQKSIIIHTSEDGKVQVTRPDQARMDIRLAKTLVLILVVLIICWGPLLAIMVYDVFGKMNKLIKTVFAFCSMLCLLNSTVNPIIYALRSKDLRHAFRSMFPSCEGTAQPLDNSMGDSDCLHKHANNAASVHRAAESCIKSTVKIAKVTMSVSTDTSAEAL

Thromboxane A2 receptor = molecular target: T2, Thromboxane A2 receptor (Homo sapiens, UniProt P21731)
T2 sequence (P21731 whole entry): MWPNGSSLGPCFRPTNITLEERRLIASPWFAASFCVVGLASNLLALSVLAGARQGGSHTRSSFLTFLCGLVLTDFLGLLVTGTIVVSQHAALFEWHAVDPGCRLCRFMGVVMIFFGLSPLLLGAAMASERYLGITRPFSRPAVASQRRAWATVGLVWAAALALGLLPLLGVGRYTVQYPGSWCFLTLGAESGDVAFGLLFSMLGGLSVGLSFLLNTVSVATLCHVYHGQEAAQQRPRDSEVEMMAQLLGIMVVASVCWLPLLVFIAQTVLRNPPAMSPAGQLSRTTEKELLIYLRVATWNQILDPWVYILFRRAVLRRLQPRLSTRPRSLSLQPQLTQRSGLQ

Motilin receptor = Motilin receptor (Homo sapiens, UniProt O43193)
Sequence of Motilin receptor (O43193 whole entry): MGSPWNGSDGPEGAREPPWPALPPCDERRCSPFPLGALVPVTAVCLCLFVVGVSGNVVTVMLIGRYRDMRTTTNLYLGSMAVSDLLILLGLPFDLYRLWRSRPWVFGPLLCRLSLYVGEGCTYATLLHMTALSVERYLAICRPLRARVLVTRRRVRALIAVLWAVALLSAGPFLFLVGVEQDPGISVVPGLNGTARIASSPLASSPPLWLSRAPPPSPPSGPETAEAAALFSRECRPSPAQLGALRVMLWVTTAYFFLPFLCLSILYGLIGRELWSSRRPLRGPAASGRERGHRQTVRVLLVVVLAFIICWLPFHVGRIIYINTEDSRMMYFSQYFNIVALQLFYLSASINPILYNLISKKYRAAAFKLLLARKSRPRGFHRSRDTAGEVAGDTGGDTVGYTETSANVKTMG

[2] = molecular target: 5-hydroxytryptamine receptor 2A (Homo sapiens, UniProt P28223); format: functional, cell-based
Sequence of 5-hydroxytryptamine receptor 2A (P28223 whole entry): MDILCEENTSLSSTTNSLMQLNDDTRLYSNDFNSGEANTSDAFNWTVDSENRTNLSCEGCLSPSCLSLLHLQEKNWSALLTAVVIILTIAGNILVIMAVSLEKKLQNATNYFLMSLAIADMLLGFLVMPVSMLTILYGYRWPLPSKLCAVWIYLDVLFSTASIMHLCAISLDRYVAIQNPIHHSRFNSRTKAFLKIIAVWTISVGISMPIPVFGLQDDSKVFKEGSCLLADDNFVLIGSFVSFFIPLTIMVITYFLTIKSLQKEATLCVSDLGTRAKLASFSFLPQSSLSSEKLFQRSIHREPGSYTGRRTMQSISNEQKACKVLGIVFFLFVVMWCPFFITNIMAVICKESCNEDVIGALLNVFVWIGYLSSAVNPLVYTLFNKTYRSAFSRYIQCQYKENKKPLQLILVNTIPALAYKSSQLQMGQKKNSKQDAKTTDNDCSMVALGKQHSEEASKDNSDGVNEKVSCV

Adenosine receptor A1 = molecular target: T3, Adenosine receptor A1 (Homo sapiens, UniProt P30542)
T3 sequence (P30542 whole entry): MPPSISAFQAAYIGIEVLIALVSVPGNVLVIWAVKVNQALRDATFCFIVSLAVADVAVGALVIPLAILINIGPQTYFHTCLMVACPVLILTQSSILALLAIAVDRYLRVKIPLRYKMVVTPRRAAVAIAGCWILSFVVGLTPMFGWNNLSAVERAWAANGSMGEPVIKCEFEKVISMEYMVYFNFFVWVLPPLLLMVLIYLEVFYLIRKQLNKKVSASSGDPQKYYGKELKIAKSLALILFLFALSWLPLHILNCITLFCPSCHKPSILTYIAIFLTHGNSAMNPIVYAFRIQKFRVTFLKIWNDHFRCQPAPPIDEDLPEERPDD

Histamine H3 receptor = Histamine H3 receptor (Homo sapiens, UniProt Q9Y5N1)
Sequence of Histamine H3 receptor (Q9Y5N1 whole entry): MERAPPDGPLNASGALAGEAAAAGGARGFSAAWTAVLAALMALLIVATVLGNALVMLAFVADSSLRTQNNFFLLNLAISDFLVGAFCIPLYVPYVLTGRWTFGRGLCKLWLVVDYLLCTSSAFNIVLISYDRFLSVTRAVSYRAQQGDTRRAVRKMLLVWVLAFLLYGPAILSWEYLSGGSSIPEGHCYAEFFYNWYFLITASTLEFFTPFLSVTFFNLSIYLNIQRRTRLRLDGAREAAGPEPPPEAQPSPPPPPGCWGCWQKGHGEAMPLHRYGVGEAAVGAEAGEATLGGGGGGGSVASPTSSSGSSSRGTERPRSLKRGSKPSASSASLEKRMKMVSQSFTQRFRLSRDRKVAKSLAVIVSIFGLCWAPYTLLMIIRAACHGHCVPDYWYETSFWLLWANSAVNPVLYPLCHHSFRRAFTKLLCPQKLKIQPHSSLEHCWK

[3] = molecular target: Sodium-dependent serotonin transporter (Homo sapiens, UniProt P31645)
Sequence of Sodium-dependent serotonin transporter (P31645 whole entry): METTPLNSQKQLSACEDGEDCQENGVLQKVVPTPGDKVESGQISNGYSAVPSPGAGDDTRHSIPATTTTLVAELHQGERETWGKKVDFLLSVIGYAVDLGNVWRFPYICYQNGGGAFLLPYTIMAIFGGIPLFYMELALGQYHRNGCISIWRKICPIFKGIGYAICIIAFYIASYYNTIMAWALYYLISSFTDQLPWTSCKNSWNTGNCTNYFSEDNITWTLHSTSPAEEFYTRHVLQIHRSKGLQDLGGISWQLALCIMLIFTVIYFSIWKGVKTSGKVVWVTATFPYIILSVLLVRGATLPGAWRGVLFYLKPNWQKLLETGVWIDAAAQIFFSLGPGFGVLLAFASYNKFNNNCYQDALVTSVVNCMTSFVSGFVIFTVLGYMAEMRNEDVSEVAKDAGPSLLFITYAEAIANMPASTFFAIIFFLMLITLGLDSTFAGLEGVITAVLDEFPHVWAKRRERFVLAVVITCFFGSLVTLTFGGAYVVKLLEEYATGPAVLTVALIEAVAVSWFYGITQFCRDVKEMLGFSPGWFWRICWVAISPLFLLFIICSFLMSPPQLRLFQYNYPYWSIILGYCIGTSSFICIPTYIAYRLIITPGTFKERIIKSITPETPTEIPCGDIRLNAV

Glucocorticoid receptor = molecular target: T4, Glucocorticoid receptor (Homo sapiens, UniProt P04150)
T4 sequence (P04150 whole entry): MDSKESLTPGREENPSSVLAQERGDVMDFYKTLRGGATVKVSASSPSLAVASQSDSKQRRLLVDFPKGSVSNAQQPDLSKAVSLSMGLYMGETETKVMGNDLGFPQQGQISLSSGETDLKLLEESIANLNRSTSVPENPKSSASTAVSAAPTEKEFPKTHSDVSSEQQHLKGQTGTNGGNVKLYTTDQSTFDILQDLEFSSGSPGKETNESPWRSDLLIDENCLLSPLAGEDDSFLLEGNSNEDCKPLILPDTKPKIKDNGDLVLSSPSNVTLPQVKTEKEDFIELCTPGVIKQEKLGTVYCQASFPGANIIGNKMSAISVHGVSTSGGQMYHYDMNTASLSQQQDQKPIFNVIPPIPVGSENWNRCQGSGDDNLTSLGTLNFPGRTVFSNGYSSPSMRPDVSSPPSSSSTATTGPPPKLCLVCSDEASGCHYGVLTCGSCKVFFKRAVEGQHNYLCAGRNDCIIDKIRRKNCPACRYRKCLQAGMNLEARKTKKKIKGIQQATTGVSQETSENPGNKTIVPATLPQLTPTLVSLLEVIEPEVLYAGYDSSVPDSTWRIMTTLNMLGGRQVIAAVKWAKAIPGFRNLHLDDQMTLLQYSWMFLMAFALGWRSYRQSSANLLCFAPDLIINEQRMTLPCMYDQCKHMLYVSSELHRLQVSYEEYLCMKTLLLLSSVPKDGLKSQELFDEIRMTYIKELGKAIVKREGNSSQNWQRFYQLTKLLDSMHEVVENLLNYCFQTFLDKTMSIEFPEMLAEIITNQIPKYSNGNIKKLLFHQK
Note: assay procedure not described here.

| SMILES | AC50 [1] [µM] | AC50 (Cannabinoid receptor 1) [µM] | AC50 (Thromboxane A2 receptor) [µM] | AC50 (Motilin receptor) [µM] | AC50 [2] [µM] | AC50 (Adenosine receptor A1) [µM] | AC50 (Histamine H3 receptor) [µM] | AC50 [3] [µM] | AC50 (Glucocorticoid receptor) [µM] |
| --- | --- | --- | --- | --- | --- | --- | --- | --- | --- |
| C[N+](C)(C)CCOC(N)=O [CARBAMOYLCHOLINE] | > 10 | > 10 | > 10 | > 10 | – | – | – | – | – |
| CN1C(=O)N(C)C2C1N(C)C(=O)N2C (stereo not given) [MEBICAR] | – | – | – | – | > 30 | > 30 | – | – | – |
| CN(C)CCCN1c2ccccc2Sc2ccccc21 [PROMAZINE] | > 30 | > 10 | > 30 | > 10 | – | – | > 10 | – | – |
| N[C@@H](CSCC(=O)O)C(=O)O [CARBOCYSTEINE] | > 30 | – | > 30 | > 30 | > 30 | – | > 30 | > 30 | – |
| Nc1ccc(/N=N/c2ccccc2)c(N)n1 [PHENAZOPYRIDINE] | – | – | – | – | > 30 | 13.1 | – | – | – |
| Cn1cc[nH]c1=S [METHIMAZOLE] | – | – | – | – | – | > 30 | – | – | – |
| CN(CCCN1c2ccccc2CCc2ccccc21)CC(=O)c1ccc(Cl)cc1 [LOFEPRAMINE] | > 30 | 6.9 | > 30 | > 30 | 6.6 | – | > 30 | – | > 30 |
| NS(=O)(=O)c1cc(Cl)c(Cl)c(S(N)(=O)=O)c1 [DICHLORPHENAMIDE] | > 10 | > 10 | > 10 | > 10 | > 10 | – | > 10 | > 10 | > 10 |
| CCOC(=O)CC(SP(=S)(OC)OC)C(=O)OCC (stereo not given) [MALATHION] | – | – | – | – | – | 11.5 | – | – | – |
| CC(=O)N[C@H]1[C@H]([C@H](O)[C@H](O)CO)OC(C(=O)O)=C[C@@H]1N=C(N)N [ZANAMIVIR] | > 30 | > 30 | > 30 | > 30 | > 30 | – | > 30 | > 30 | > 30 |
| C[N+](C)(C)CC(=O)O [BETAINE] | > 30 | – | > 30 | > 30 | > 30 | – | > 30 | > 30 | – |
| CCS(=O)(=O)N1CC(CC#N)(n2cc(-c3ncnc4[nH]ccc34)cn2)C1 [BARICITINIB] | – | – | – | – | – | > 30 | – | – | – |
| CC(=O)N(CC(O)CO)c1c(I)c(C(=O)NCC(O)CO)c(I)c(C(=O)NCC(O)CO)c1I (stereo not given) [IOHEXOL] | > 30 | – | > 30 | > 10 | > 30 | – | > 10 | > 30 | – |
| CN(C/C=C/c1ccccc1)Cc1cccc2ccccc12 [NAFTIFINE] | > 30 | 9.87 | > 30 | > 10 | – | – | > 10 | – | > 30 |
| COc1cc(NCc2ccc3nc(N)nc(N)c3c2C)cc(OC)c1OC [TRIMETREXATE] | – | – | – | – | – | > 30 | – | – | – |
| Nc1nc(-n2cc(C(=O)O)c(=O)c3cc(F)c(N4CC(O)C4)c(Cl)c32)c(F)cc1F [DELAFLOXACIN] | – | – | – | – | – | > 30 | – | – | – |
| O=C(O)c1cccc(-c2noc(-c3ccccc3F)n2)c1 | – | – | > 30 | – | – | > 30 | – | – | – |
| NS(=O)(=O)c1cc(-c2nnn[nH]2)c(NCc2cccs2)cc1Cl [AZOSEMIDE] | > 30 | – | > 30 | > 30 | > 30 | – | > 30 | > 30 | > 30 |

| SMILES | AC50 [1] [µM] | AC50 (Cannabinoid receptor 1) [µM] | AC50 (Thromboxane A2 receptor) [µM] | AC50 (Motilin receptor) [µM] | AC50 [2] [µM] | AC50 (Adenosine receptor A1) [µM] | AC50 (Histamine H3 receptor) [µM] | AC50 [3] [µM] | AC50 (Glucocorticoid receptor) [µM] |
| --- | --- | --- | --- | --- | --- | --- | --- | --- | --- |
| C=C1C[C@@H]2[C@H](CC[C@]3(C)C(=O)CC[C@@H]23)[C@@]2(C)C=CC(=O)C=C12 [EXEMESTANE] | > 30 | > 10 | > 30 | > 10 | > 30 | – | > 10 | > 30 | – |
| CCCC(=O)N1CCCN(c2nc(N)c3cc(OC)c(OC)cc3n2)CC1 [BUNAZOSIN] | > 30 | – | – | > 30 | > 30 | – | > 30 | > 30 | – |
| NS(=O)(=O)c1cc2c(cc1Cl)NC(CC1CCCC1)NS2(=O)=O (stereo not given) [CYCLOPENTHIAZIDE] | – | – | – | – | > 30 | > 30 | – | – | – |
| NC(=O)c1cccc2cn(-c3ccc([C@@H]4CCCNC4)cc3)nc12 [NIRAPARIB] | – | – | – | – | – | > 30 | – | – | – |
| CO/N=C(\C(=O)N[C@@H]1C(=O)N2C(C(=O)OCOC(=O)C(C)(C)C)=C(C)CS[C@H]12)c1csc(N)n1 | – | – | – | – | > 30 | > 30 | – | – | – |
| CC(C)NCC1CCc2cc(CO)c([N+](=O)[O-])cc2N1 (stereo not given) [OXAMNIQUINE] | > 30 | > 10 | > 10 | > 10 | > 30 | – | > 10 | 39.6 | > 10 |
| CC(C)=CCC1C(=O)N(c2ccccc2)N(c2ccccc2)C1=O [FEPRAZONE] | – | – | – | – | – | > 30 | – | – | – |
| O=C(Nc1ccccc1)OCC(CN1CCCCC1)OC(=O)Nc1ccccc1 (stereo not given) [DIPERODON] | > 30 | > 10 | > 30 | > 10 | > 30 | – | > 10 | > 10 | > 30 |
| CC(=O)O[C@]1(C(C)=O)CC[C@H]2[C@@H]3C[C@H](C)C4=CC(=O)CC[C@]4(C)[C@H]3CC[C@@]21C [MEDROXYPROGESTERONE ACETATE] | > 30 | – | – | > 30 | – | > 30 | > 30 | – | 0.015 |
| CC(C)(N)Cc1ccc(Cl)cc1 [CHLORPHENTERMINE] | > 30 | > 10 | > 30 | > 10 | > 30 | – | > 10 | 4.57 | – |
| N/N=c1/cc2c(n[nH]1)CCN(C(=O)c1ccccc1)C2 [ENDRALAZINE] | – | – | – | – | > 30 | > 30 | – | – | – |
| NCc1ccccc1CC(=O)N[C@@H]1C(=O)N2C(C(=O)O)=C(CSc3nnnn3CC(=O)O)CS[C@H]12 [CEFORANIDE] | – | – | – | – | – | > 30 | – | – | – |
| O=P(O)(O)C(O)(Cc1cccnc1)P(=O)(O)O [RISEDRONIC ACID] | > 30 | > 30 | > 30 | > 30 | – | – | > 30 | – | > 30 |
| CC(C(O)c1ccc(O)cc1)N1CCC(Cc2ccccc2)CC1 (stereo not given) [IFENPRODIL] | – | – | > 30 | > 30 | 9.6 | – | > 30 | 0.28 | > 30 |
| CC1=NN(c2ccccc2)C(=O)C1 [EDARAVONE] | – | – | – | – | – | > 30 | – | – | – |
| CS(=O)(=O)Nc1cc2occ(NC=O)c(=O)c2cc1Oc1ccccc1 [IGURATIMOD] | – | – | – | – | – | – | – | > 30 | – |
| O=C1CCC(N2C(=O)c3ccccc3C2=O)C(=O)N1 (stereo not given) [THALIDOMIDE] | > 30 | > 10 | > 30 | > 10 | – | – | > 10 | – | > 30 |
| CN(C)[C@@H]1C(O)=C(C(N)=O)C(=O)[C@@]2(O)C(O)=C3C(=O)c4c(O)ccc(Cl)c4[C@@H](O)[C@H]3C[C@@H]12 [DEMECLOCYCLINE] | > 10 | > 10 | > 10 | > 10 | > 10 | – | – | > 10 | > 30 |

From ChEMBL document CHEMBL5291721, “A preclinical secondary pharmacology resource illuminates target-adverse drug reaction associations of marketed drugs” (Nat Commun, 2023)
